Starred links: 1 amine or outer side, 2 acyl side, 3 side chain; linkers in the order of their positions; H or OH if unused. Positions of bridges follow the written chain, without caps; N, C: chain ends. Non-standard residues stand in square brackets, D forms with d. Residues, ends and D or L forms follow the SMILES beside them. *: point of attachment. DOTA = O=C(O)CN1CCN(CC(=O)O)CCN(CC(=O)*)CCN(CC(=O)O)CC1; Phe(4-tBu) = CC(C)(C)c1ccc(C[C@H](N)C(=O)O)cc1; Pyridine(2,6-diCH2) = c1cc(C[*:1])nc(C[*:2])c1; Pyridine(3,5-bisCH2) = c1ncc(C[*:2])cc1C[*:1]; Trp(7-aza) = N[C@@H](Cc1c[nH]c2ncccc12)C(=O)O; Bip = N[C@@H](Cc1ccc(-c2ccccc2)cc1)C(=O)O; Dip = N[C@H](C(=O)O)C(c1ccccc1)c1ccccc1; Phe(4-NH2) = Nc1ccc(C[C@H](N)C(=O)O)cc1; Cyclopentanecarbonyl = O=C(C1CCCC1)*; mXylylene = c1cc(C[*:1])cc(C[*:2])c1; X2 = O=C(CN1CCC(N[*:1])CC1)[*:2]; Isonicotinoyl = O=C(c1ccncc1)*; Dap = NC[C@H](N)C(=O)O; Bz = O=C(c1ccccc1)*; X56 = O=C(c1nccs1)*; Bn = c1ccc(C*)cc1

The target in one experiment is T1, CAIX-expressing human HT-29 colorectal cancer cells (Homo sapiens, UniProt Q16790).
T1 construct: CAIX-expressing human HT-29 colorectal cancer cells; host or cells: HT-29 human colorectal cancer cells
Put plainly: FACS binding assay (IC50 determination, competition with tracer 3BP-2776 or 3BP-4149).
Conditions: not given
The method in brief: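 HT-29 cells in FACS buffer (PBS, 1% FCS) at 500.000 cells/ml were exposed to compounds competing with a labelled tracer, with biotinylated compounds detected by 1 μg/mL APC-streptavidin for 30 min on ice. APC/Cy5 median fluorescence was read by flow cytometry and IC50 derived by 4PL fit.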
In general terms: In flow cytometry, cells or beads pass a laser one at a time.
With `CC(C)C[C@@H]1NC(=O)[C@H](Cc2c[nH]c3ccccc23)NC(=O)[C@H](Cc2ccc(OCc3ccccc3)cc2)NC(=O)[C@H]2CCCN2C(=O)[C@H](CCC(=O)O)NC(=O)[C@@H](NC(=O)[C@H](Cc2ccc(O)cc2)NC(=O)[C@@H](NC(=O)CN2CCC(NC(=O)CN3CCN(CC(=O)O)CCN(CC(=O)O)CCN(CC(=O)O)CC3)CC2)C(C)C)CSCc2cccc(c2)CSC[C@@H](C(N)=O)NC(=O)[C@H](CO)NC(=O)[C@H](Cc2c[nH]c3ccccc23)NC(=O)[C@H]([C@@H](C)O)NC1=O` [3BP-4127] ({DOTA}-[X2]VYCE[dP]Y(Bn)WLTWSC-NH2; linker 4-13 via mXylylene), the IC50 is below 10 nM.
The same measure, in the same setting: the result for `CC(C)C[C@@H]1NC(=O)[C@H](Cc2ccc(OCc3ccccc3)cc2)NC(=O)[C@H](CC(=O)O)NC(=O)[C@H]2CCCN2C(=O)[C@H](CCC(=O)O)NC(=O)[C@@H](NC(=O)[C@H](Cc2ccc(O)cc2)NC(=O)[C@@H](NC(=O)CN2CCC(NC(=O)CN3CCN(CC(=O)O)CCN(CC(=O)O)CCN(CC(=O)O)CC3)CC2)C(C)C)CSCc2cccc(c2)CSC[C@@H](C(N)=O)NC(=O)[C@H](CO)NC(=O)[C@H](Cc2c[nH]c3ccccc23)NC(=O)[C@H]([C@@H](C)O)NC1=O` [3BP-4137] ({DOTA}-[X2]VYCE[dP]DY(Bn)LTWSC-NH2; linker 4-13 via mXylylene) reads 10 to 79.4 nM; that for `CC(C)C[C@@H]1NC(=O)[C@H](Cc2ccc(NC(=O)c3ccccc3)cc2)NC(=O)[C@H](CC(=O)O)NC(=O)[C@H]2CCCN2C(=O)[C@H](CCC(=O)O)NC(=O)[C@@H](NC(=O)[C@H](Cc2ccc(O)cc2)NC(=O)[C@@H](NC(=O)CN2CCC(NC(=O)CN3CCN(CC(=O)O)CCN(CC(=O)O)CCN(CC(=O)O)CC3)CC2)C(C)C)CSCc2cccc(c2)CSC[C@@H](C(N)=O)NC(=O)[C@H](CO)NC(=O)[C@H](Cc2c[nH]c3ccccc23)NC(=O)[C@H]([C@@H](C)O)NC1=O` [3BP-4171] ({DOTA}-[X2]VYCE[dP]D[Phe(4-NH2)](Bz)LTWSC-NH2; linker 4-13 via mXylylene), 100 to 794 nM.

Staying with this experiment, now noted: FACS binding assay, HT-29 cells, competition with tracer 3BP-2776 (10 nM, biotin-labeled), 4° C., 1 hour; read-out: pIC50 category (activity) (converted).
Turning to `CC(C)C[C@@H]1NC(=O)[C@H](CSCc2ccccc2)NC(=O)[C@H](CC(=O)O)NC(=O)[C@H]2CCCN2C(=O)[C@H](CCC(=O)O)NC(=O)[C@@H](NC(=O)[C@H](Cc2ccc(O)cc2)NC(=O)[C@@H](NC(=O)CN2CCC(NC(=O)CN3CCN(CC(=O)O)CCN(CC(=O)O)CCN(CC(=O)O)CC3)CC2)C(C)C)CSCc2cccc(c2)CSC[C@@H](C(N)=O)NC(=O)[C@H](CO)NC(=O)[C@H](Cc2c[nH]c3ccccc23)NC(=O)[C@H]([C@@H](C)O)NC1=O` [3BP-4130] ({DOTA}-[X2]VYCE[dP]DC(Bn)LTWSC-NH2; linker 4-13 via mXylylene), the IC50 was below 10 nM.
On to `CC(C)C[C@@H]1NC(=O)[C@H](Cc2ccc(-c3ccccc3)cc2)NC(=O)[C@H](CC(=O)O)NC(=O)[C@H]2CCCN2C(=O)[C@H](CCC(=O)O)NC(=O)[C@@H](NC(=O)[C@H](Cc2ccc(O)cc2)NC(=O)[C@@H](NC(=O)CN2CCC(NC(=O)CN3CCN(CC(=O)O)CCN(CC(=O)O)CCN(CC(=O)O)CC3)CC2)C(C)C)CSCc2cccc(c2)CSC[C@@H](C(N)=O)NC(=O)[C@H](CO)NC(=O)[C@H](Cc2c[nH]c3ccccc23)NC(=O)[C@H]([C@@H](C)O)NC1=O` [3BP-4131] ({DOTA}-[X2]VYCE[dP]D[Bip]LTWSC-NH2; linker 4-13 via mXylylene), for which the IC50 was below 10 nM.
Same read-out and setting: the result for `CC(C)C[C@@H]1NC(=O)[C@H](C(c2ccccc2)c2ccccc2)NC(=O)[C@H](CC(=O)O)NC(=O)[C@H]2CCCN2C(=O)[C@H](CCC(=O)O)NC(=O)[C@@H](NC(=O)[C@H](Cc2ccc(O)cc2)NC(=O)[C@@H](NC(=O)CN2CCC(NC(=O)CN3CCN(CC(=O)O)CCN(CC(=O)O)CCN(CC(=O)O)CC3)CC2)C(C)C)CSCc2cccc(c2)CSC[C@@H](C(N)=O)NC(=O)[C@H](CO)NC(=O)[C@H](Cc2c[nH]c3ccccc23)NC(=O)[C@H]([C@@H](C)O)NC1=O` [3BP-4132] ({DOTA}-[X2]VYCE[dP]D[Dip]LTWSC-NH2; linker 4-13 via mXylylene) reads below 10 nM; that for `CC(C)C[C@@H]1NC(=O)[C@H](Cc2ccc(O)cc2)NC(=O)[C@H](CC(=O)O)NC(=O)[C@H]2CCCN2C(=O)[C@H](CCC(=O)O)NC(=O)[C@@H](NC(=O)[C@H](Cc2ccc(O)cc2)NC(=O)[C@@H](NC(=O)CN2CCC(NC(=O)CN3CCN(CC(=O)O)CCN(CC(=O)O)CCN(CC(=O)O)CC3)CC2)C(C)C)CSCc2cccc(c2)CSC[C@@H](C(N)=O)NC(=O)[C@H](CO)NC(=O)[C@H](Cc2c[nH]c3ccccc23)NC(=O)[C@H]([C@@H](C)O)NC1=O` [3BP-4136] ({DOTA}-[X2]VYCE[dP]DYLTWSC-NH2; linker 4-13 via mXylylene), below 10 nM.
Same read-out and setting: then `CC(C)C[C@@H]1NC(=O)[C@H](Cc2c[nH]c3ccccc23)NC(=O)[C@H](CC(=O)O)NC(=O)[C@H]2CCCN2C(=O)[C@H](CCC(=O)O)NC(=O)[C@@H](NC(=O)[C@H](Cc2ccc(O)cc2)NC(=O)[C@@H](NC(=O)CN2CCC(NC(=O)CN3CCN(CC(=O)O)CCN(CC(=O)O)CCN(CC(=O)O)CC3)CC2)C(C)C)CSCc2cccc(n2)CSC[C@@H](C(N)=O)NC(=O)[C@H](CO)NC(=O)[C@H](Cc2c[nH]c3ccccc23)NC(=O)[C@H]([C@@H](C)O)NC1=O` [3BP-4140] ({DOTA}-[X2]VYCE[dP]DWLTWSC-NH2; linker 4-13 via Pyridine(2,6-diCH2)), with 10 to 79.4 nM.
Still for that read-out and setting: the result for `CC(C)C[C@@H]1NC(=O)[C@H](Cc2c[nH]c3ccccc23)NC(=O)[C@H](CC(=O)O)NC(=O)[C@H]2CCCN2C(=O)[C@H](CCC(=O)O)NC(=O)[C@@H](NC(=O)[C@H](Cc2ccc(O)cc2)NC(=O)[C@@H](NC(=O)CN2CCC(NC(=O)CN3CCN(CC(=O)O)CCN(CC(=O)O)CCN(CC(=O)O)CC3)CC2)C(C)C)CSCc2cncc(c2)CSC[C@@H](C(N)=O)NC(=O)[C@H](CO)NC(=O)[C@H](Cc2c[nH]c3ccccc23)NC(=O)[C@H]([C@@H](C)O)NC1=O` [3BP-4141] ({DOTA}-[X2]VYCE[dP]DWLTWSC-NH2; linker 4-13 via Pyridine(3,5-bisCH2)) reads 100 to 794 nM; that for `CC(C)C[C@@H]1NC(=O)[C@H](Cc2c[nH]c3ccccc23)NC(=O)[C@H](CC(=O)O)NC(=O)[C@H]2CCCN2C(=O)[C@H](CCC(=O)O)NC(=O)[C@@H](NC(=O)[C@H](Cc2ccc(O)cc2)NC(=O)[C@@H](NC(=O)CN2CCC(NC(=O)CN3CCN(CC(=O)O)CCN(CC(=O)O)CCN(CC(=O)O)CC3)CC2)C(C)C)CSCc2cccc(c2)CSC[C@@H](C(N)=O)NC(=O)[C@H](CO)NC(=O)[C@H](Cc2c[nH]c3ncccc23)NC(=O)[C@H]([C@@H](C)O)NC1=O` [3BP-4159] ({DOTA}-[X2]VYCE[dP]DWLT[Trp(7-aza)]SC-NH2; linker 4-13 via mXylylene), below 10 nM.
For the compound `CC(C)C[C@@H]1NC(=O)[C@H](Cc2ccc(C(C)(C)C)cc2)NC(=O)[C@H](CC(=O)O)NC(=O)[C@H]2CCCN2C(=O)[C@H](CCC(=O)O)NC(=O)[C@@H](NC(=O)[C@H](Cc2ccc(O)cc2)NC(=O)[C@@H](NC(=O)CN2CCC(NC(=O)CN3CCN(CC(=O)O)CCN(CC(=O)O)CCN(CC(=O)O)CC3)CC2)C(C)C)CSCc2cccc(c2)CSC[C@@H](C(N)=O)NC(=O)[C@H](CO)NC(=O)[C@H](Cc2c[nH]c3ccccc23)NC(=O)[C@H]([C@@H](C)O)NC1=O` [3BP-4160] ({DOTA}-[X2]VYCE[dP]D[Phe(4-tBu)]LTWSC-NH2; linker 4-13 via mXylylene), the IC50 was 10 to 79.4 nM.
Still for that read-out and setting: then `CC(C)C[C@@H]1NC(=O)[C@H](Cc2ccc(NC(=O)C3CCCC3)cc2)NC(=O)[C@H](CC(=O)O)NC(=O)[C@H]2CCCN2C(=O)[C@H](CCC(=O)O)NC(=O)[C@@H](NC(=O)[C@H](Cc2ccc(O)cc2)NC(=O)[C@@H](NC(=O)CN2CCC(NC(=O)CN3CCN(CC(=O)O)CCN(CC(=O)O)CCN(CC(=O)O)CC3)CC2)C(C)C)CSCc2cccc(c2)CSC[C@@H](C(N)=O)NC(=O)[C@H](CO)NC(=O)[C@H](Cc2c[nH]c3ccccc23)NC(=O)[C@H]([C@@H](C)O)NC1=O` [3BP-4173] ({DOTA}-[X2]VYCE[dP]D[Phe(4-NH2)](Cyclopentanecarbonyl)LTWSC-NH2; linker 4-13 via mXylylene), with 10 to 79.4 nM.
The same measure, in the same setting: then `CC(C)C[C@@H]1NC(=O)[C@H](Cc2c[nH]c3ccccc23)NC(=O)[C@H](CC(=O)O)NC(=O)[C@H]2CCCN2C(=O)[C@H](CCC(=O)O)NC(=O)[C@@H]2CSCc3cccc(c3)CSC[C@@H](C(N)=O)NC(=O)[C@H](CCC(=O)NC[C@H](NC(=O)[C@@H](NC(=O)CN3CCC(NC(=O)CN4CCN(CC(=O)O)CCN(CC(=O)O)CCN(CC(=O)O)CC4)CC3)C(C)C)C(=O)N2)NC(=O)[C@H](Cc2c[nH]c3ccccc23)NC(=O)[C@H]([C@@H](C)O)NC1=O` [3BP-4177] ({DOTA}-[X2]V[Dap]CE[dP]DWLTWEC-NH2; lactam 3-12; linker 4-13 via mXylylene), with below 10 nM.
Same read-out and setting: the result for `CC(C)C[C@@H]1NC(=O)[C@H](Cc2ccc(NC(=O)c3nccs3)cc2)NC(=O)[C@H](CC(=O)O)NC(=O)[C@H]2CCCN2C(=O)[C@H](CCC(=O)O)NC(=O)[C@@H](NC(=O)[C@H](Cc2ccc(O)cc2)NC(=O)[C@@H](NC(=O)CN2CCC(NC(=O)CN3CCN(CC(=O)O)CCN(CC(=O)O)CCN(CC(=O)O)CC3)CC2)C(C)C)CSCc2cccc(c2)CSC[C@@H](C(N)=O)NC(=O)[C@H](CO)NC(=O)[C@H](Cc2c[nH]c3ccccc23)NC(=O)[C@H]([C@@H](C)O)NC1=O` [3BP-4180] ({DOTA}-[X2]VYCE[dP]D[Phe(4-NH2)](X56)LTWSC-NH2; linker 4-13 via mXylylene) reads 100 to 794 nM; that for `CC(C)C[C@@H]1NC(=O)[C@H](Cc2ccc(NC(=O)c3ccncc3)cc2)NC(=O)[C@H](CC(=O)O)NC(=O)[C@H]2CCCN2C(=O)[C@H](CCC(=O)O)NC(=O)[C@@H](NC(=O)[C@H](Cc2ccc(O)cc2)NC(=O)[C@@H](NC(=O)CN2CCC(NC(=O)CN3CCN(CC(=O)O)CCN(CC(=O)O)CCN(CC(=O)O)CC3)CC2)C(C)C)CSCc2cccc(c2)CSC[C@@H](C(N)=O)NC(=O)[C@H](CO)NC(=O)[C@H](Cc2c[nH]c3ccccc23)NC(=O)[C@H]([C@@H](C)O)NC1=O` [3BP-4183] ({DOTA}-[X2]VYCE[dP]D[Phe(4-NH2)](Isonicotinoyl)LTWSC-NH2; linker 4-13 via mXylylene), 100 to 794 nM.

The values are drawn from patent publication US20250339569A1, “CARBONIC ANHYDRASE IX LIGANDS” (priority 2021, published 2025).
